Experimental data as given in ChEMBL document CHEMBL2029272, “7-Azabicyclo[2.2.1]heptane as a scaffold for the development of selective sigma-2 (σ2) receptor ligands” (Bioorg Med Chem Lett, 2012).

Assays:
[1] = biological target: T1, Alpha-1A adrenergic receptor (Homo sapiens) (UniProt P35348); assay: Inhibition of alpha1A adrenergic receptor at 10 uM
T1 sequence (whole entry): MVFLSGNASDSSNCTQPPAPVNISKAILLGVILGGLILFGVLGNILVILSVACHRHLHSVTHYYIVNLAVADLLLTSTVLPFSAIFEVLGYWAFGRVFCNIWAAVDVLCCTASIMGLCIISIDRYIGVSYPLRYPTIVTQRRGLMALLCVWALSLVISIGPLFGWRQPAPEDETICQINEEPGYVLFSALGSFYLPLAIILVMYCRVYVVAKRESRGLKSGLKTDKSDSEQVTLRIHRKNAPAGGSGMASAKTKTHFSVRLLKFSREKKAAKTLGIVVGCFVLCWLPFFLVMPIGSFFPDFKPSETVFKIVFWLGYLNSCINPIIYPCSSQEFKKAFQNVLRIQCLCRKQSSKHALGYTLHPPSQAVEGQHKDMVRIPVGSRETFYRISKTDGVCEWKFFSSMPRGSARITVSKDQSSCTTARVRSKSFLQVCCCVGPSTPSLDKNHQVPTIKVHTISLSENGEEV

[2] = biological target: Alpha-1B adrenergic receptor (Homo sapiens) (UniProt P35368); assay: Inhibition of alpha1B adrenergic receptor at 10 uM
[3] = biological target: T2, Alpha-1D adrenergic receptor (Homo sapiens) (UniProt P25100); assay: Inhibition of alpha1D adrenergic receptor at 10 uM
T2 sequence (whole entry): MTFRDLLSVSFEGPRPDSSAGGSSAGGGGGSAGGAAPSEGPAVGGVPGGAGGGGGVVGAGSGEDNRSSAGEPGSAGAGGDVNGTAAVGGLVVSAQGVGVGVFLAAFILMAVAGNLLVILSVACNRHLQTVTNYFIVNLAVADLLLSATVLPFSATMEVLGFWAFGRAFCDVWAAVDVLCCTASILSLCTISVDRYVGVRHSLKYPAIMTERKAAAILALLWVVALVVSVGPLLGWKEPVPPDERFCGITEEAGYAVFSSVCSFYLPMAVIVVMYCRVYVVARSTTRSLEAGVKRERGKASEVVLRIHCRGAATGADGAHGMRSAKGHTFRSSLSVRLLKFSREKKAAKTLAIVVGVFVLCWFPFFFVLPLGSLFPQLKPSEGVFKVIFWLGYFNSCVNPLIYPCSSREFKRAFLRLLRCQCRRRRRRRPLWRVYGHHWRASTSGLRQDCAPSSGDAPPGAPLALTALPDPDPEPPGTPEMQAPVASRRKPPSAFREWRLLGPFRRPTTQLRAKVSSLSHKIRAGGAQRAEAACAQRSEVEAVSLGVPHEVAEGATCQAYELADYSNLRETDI

[4] = biological target: Alpha-2B adrenergic receptor (Homo sapiens) (UniProt P18089); assay: Inhibition of alpha2B adrenergic receptor at 10 uM
[5] = biological target: Beta-1 adrenergic receptor (Homo sapiens) (UniProt P08588); assay: Inhibition of beta1 adrenergic receptor at 10 uM
[6] = biological target: Beta-2 adrenergic receptor (Homo sapiens) (UniProt P07550); assay: Inhibition of beta2 adrenergic receptor at 10 uM
[7] = biological target: D(2) dopamine receptor (Homo sapiens, UniProt P14416); assay: Inhibition of D2 dopamine receptor at 10 uM
[8] = biological target: T3, D(4) dopamine receptor (Homo sapiens) (UniProt P21917); assay: Inhibition of D4 dopamine receptor at 10 uM
T3 sequence (whole entry): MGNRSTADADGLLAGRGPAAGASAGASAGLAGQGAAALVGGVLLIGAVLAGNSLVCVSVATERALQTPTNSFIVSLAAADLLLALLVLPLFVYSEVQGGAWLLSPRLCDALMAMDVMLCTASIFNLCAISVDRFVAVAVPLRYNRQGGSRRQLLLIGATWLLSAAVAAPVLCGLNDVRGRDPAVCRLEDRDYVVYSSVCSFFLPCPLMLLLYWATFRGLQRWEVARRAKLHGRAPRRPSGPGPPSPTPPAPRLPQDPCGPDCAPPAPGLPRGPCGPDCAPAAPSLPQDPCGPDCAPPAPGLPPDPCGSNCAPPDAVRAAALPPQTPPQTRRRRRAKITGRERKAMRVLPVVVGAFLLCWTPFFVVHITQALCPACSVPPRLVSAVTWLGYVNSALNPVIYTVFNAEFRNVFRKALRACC

[9] = biological target: Sodium-dependent dopamine transporter (Homo sapiens, UniProt Q01959); assay: Inhibition of DAT at 10 uM
[10] = Inhibition of GABA-A receptor at 10 uM
[11] = biological target: Histamine H3 receptor (Homo sapiens, UniProt Q9Y5N1); assay: Inhibition of H3 receptor at 10 uM
[12] = biological target: 5-hydroxytryptamine receptor 1B (Homo sapiens) (UniProt P28222); assay: Inhibition of 5-HT1B receptor at 10 uM
[13] = biological target: 5-hydroxytryptamine receptor 1D (Homo sapiens) (UniProt P28221); assay: Inhibition of 5-HT1D receptor at 10 uM
[14] = biological target: 5-hydroxytryptamine receptor 2A (Homo sapiens) (UniProt P28223); assay: Inhibition of 5-HT2A receptor at 10 uM
[15] = biological target: 5-hydroxytryptamine receptor 2B (Homo sapiens) (UniProt P41595); assay: Inhibition of 5-HT2B receptor at 10 uM
[16] = biological target: T4, 5-hydroxytryptamine receptor 3A (Homo sapiens) (UniProt P46098); assay: Inhibition of 5-HT3 receptor at 10 uM
T4 sequence (whole entry): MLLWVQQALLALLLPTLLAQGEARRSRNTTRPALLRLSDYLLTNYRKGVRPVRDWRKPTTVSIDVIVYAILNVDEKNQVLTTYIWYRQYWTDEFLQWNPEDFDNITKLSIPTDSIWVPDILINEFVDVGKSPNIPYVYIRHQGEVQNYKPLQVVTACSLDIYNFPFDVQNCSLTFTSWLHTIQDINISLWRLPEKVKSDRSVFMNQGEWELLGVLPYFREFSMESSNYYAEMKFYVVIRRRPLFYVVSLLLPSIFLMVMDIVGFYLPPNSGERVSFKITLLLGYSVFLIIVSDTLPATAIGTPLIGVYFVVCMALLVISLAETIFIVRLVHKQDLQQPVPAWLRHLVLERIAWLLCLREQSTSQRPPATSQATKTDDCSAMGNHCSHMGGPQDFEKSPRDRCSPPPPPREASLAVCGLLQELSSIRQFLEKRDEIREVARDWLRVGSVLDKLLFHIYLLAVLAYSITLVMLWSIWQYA

[17] = biological target: Sodium-dependent serotonin transporter (Homo sapiens, UniProt P31645); assay: Inhibition of SERT at 10 uM
[18] = biological target: Sodium-dependent noradrenaline transporter (Homo sapiens) (UniProt P23975); assay: Inhibition of NET at 10 uM
[19] = biological target: Delta-type opioid receptor (Homo sapiens) (UniProt P41143); assay: Inhibition of delta opioid receptor at 10 uM
[20] = biological target: Mu-type opioid receptor (Homo sapiens) (UniProt P35372); assay: Inhibition of mu opioid receptor at 10 uM
[21] = biological target: Muscarinic acetylcholine receptor M1 (Homo sapiens, UniProt P11229); assay: Inhibition of M1 muscarinic receptor

Sequence of 5-hydroxytryptamine receptor 1B (Homo sapiens) (P28222 whole entry): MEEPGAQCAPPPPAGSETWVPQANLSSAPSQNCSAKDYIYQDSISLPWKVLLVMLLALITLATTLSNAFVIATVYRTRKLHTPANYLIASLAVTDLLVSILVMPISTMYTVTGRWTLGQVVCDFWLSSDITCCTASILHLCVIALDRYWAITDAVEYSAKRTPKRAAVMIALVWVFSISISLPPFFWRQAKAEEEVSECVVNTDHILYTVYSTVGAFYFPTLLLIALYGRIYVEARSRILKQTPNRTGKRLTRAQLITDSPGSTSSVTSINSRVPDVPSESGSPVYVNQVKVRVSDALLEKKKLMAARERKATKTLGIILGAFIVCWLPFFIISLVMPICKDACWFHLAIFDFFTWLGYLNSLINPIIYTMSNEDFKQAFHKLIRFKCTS
Sequence of Beta-2 adrenergic receptor (Homo sapiens) (P07550 whole entry, looked up): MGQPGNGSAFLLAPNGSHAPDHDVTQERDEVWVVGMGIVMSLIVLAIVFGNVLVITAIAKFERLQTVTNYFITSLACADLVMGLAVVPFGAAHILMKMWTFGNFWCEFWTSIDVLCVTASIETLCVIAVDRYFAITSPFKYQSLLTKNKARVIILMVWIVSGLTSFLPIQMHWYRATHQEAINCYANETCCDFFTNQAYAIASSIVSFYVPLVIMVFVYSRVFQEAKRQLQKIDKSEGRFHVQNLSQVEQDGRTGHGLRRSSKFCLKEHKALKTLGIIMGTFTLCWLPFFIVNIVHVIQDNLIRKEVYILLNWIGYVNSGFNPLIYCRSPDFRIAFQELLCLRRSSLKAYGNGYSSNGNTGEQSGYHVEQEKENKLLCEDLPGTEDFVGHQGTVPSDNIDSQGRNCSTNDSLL
Sequence of 5-hydroxytryptamine receptor 2B (Homo sapiens) (P41595 whole entry): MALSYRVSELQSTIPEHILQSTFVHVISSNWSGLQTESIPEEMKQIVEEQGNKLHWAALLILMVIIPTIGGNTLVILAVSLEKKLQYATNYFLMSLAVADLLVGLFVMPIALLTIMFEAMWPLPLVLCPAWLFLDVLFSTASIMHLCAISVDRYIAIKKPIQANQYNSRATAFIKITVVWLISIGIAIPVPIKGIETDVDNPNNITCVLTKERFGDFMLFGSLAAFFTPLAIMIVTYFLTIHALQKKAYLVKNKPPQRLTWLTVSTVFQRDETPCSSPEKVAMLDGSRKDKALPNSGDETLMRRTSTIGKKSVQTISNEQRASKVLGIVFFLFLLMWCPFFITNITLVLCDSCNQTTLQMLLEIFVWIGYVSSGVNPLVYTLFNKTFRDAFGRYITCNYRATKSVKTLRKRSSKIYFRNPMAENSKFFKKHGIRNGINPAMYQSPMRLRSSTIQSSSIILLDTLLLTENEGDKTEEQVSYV
Sequence of 5-hydroxytryptamine receptor 2A (Homo sapiens) (P28223 whole entry): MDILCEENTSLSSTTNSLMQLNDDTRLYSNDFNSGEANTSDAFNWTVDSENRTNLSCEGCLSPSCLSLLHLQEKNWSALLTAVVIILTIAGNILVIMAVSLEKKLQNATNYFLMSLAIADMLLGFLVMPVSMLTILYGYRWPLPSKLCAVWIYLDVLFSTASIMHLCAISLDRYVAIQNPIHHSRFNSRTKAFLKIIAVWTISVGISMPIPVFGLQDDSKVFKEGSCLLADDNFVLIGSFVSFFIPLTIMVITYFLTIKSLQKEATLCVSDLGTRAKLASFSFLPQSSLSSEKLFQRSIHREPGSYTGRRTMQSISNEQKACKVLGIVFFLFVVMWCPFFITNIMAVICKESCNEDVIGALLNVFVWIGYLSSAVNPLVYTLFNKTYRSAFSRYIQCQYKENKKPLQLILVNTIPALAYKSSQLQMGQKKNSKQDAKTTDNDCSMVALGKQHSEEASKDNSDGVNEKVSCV
Sequence of D(2) dopamine receptor (P14416 whole entry): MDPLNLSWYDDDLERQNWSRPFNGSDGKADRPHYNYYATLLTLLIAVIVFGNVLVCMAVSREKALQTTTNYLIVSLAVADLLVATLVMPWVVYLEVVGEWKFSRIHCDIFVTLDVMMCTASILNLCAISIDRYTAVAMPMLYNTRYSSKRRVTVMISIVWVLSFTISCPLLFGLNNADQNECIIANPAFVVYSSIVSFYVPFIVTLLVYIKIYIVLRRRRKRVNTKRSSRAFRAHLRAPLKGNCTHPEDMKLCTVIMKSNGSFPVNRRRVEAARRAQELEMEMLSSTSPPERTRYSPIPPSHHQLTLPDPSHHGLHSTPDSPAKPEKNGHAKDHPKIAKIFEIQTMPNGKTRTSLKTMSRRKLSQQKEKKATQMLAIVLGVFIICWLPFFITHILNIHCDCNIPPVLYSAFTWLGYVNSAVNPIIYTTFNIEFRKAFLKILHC
Sequence of Sodium-dependent serotonin transporter (P31645 whole entry, looked up): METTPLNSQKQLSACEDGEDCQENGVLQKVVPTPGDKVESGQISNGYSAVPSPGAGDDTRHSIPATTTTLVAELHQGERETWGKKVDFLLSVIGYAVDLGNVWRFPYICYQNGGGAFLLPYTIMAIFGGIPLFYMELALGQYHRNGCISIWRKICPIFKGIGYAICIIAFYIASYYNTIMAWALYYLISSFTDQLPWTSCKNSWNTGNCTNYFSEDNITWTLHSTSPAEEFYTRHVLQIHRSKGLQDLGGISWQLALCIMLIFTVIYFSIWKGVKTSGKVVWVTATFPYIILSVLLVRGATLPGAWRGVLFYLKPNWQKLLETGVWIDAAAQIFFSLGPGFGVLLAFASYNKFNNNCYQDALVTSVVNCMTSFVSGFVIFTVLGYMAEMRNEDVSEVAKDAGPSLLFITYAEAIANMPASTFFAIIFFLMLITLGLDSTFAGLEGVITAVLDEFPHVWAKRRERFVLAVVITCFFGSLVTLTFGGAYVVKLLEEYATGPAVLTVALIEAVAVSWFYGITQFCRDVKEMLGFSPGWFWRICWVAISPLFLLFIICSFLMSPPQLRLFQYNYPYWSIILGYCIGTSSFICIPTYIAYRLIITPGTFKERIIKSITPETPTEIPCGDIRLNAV
Sequence of Delta-type opioid receptor (Homo sapiens) (P41143 whole entry): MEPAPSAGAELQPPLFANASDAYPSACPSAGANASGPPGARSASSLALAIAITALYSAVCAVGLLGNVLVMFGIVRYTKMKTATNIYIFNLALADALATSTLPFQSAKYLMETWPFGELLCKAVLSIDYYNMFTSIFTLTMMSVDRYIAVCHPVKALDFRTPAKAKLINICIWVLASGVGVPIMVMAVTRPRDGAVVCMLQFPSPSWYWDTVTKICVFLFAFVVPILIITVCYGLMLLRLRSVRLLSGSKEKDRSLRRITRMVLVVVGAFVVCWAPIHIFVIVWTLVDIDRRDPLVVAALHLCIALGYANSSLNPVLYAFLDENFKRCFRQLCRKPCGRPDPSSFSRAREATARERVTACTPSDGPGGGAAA
Sequence of Sodium-dependent noradrenaline transporter (Homo sapiens) (P23975 whole entry): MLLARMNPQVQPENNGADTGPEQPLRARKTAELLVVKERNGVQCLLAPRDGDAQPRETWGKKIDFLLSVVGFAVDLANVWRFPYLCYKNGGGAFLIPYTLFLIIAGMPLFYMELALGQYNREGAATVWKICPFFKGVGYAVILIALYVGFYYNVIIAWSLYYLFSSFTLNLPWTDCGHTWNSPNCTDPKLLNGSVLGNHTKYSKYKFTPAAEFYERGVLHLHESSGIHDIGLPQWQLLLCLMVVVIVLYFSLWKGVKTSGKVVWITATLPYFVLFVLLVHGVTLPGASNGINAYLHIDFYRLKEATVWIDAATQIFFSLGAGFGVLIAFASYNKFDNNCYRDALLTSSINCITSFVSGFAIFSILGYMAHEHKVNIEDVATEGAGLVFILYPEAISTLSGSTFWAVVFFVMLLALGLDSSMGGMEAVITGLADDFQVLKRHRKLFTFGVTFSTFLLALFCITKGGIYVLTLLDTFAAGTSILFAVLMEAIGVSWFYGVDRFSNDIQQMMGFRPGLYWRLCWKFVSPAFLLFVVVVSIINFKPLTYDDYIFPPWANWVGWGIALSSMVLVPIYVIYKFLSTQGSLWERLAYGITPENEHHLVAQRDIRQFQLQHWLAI
Sequence of 5-hydroxytryptamine receptor 1D (Homo sapiens) (P28221 whole entry): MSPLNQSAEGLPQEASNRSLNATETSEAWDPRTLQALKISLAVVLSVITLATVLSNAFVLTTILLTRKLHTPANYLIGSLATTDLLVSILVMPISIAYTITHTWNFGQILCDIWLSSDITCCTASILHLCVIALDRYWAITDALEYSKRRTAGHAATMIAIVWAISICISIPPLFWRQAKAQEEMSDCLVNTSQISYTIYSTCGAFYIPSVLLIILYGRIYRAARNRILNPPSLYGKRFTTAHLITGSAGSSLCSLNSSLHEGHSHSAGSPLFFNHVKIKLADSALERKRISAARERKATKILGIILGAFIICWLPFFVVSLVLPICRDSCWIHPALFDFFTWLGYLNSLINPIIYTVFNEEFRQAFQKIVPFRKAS
Sequence of Beta-1 adrenergic receptor (Homo sapiens) (P08588 whole entry, looked up): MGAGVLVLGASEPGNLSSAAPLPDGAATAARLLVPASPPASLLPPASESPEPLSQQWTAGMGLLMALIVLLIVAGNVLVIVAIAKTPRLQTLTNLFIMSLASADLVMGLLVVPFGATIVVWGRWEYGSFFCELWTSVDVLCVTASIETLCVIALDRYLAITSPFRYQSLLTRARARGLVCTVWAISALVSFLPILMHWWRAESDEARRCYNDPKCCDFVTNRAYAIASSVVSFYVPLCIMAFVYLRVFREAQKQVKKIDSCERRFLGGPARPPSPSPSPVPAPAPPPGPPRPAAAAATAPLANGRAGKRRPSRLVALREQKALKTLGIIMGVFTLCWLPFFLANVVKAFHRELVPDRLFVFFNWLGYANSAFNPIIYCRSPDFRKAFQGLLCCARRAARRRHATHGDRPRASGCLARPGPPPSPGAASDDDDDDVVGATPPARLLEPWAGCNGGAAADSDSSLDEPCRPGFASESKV

Compound: C1CCC(CN2CCCC2)CC1
- inhibition [1]: < 50%
- inhibition [2]: < 50%
- inhibition [3]: < 50%
- inhibition [4]: < 50%
- inhibition [5]: < 50%
- inhibition [6]: < 50%
- inhibition [7]: < 50%
- inhibition [8]: < 50%
- inhibition [9]: < 50%
- inhibition [10]: < 50%
- inhibition [11]: < 50%
- inhibition [12]: < 50%
- inhibition [13]: < 50%
- inhibition [14]: < 50%
- inhibition [15]: < 50%
- inhibition [16]: < 50%
- inhibition [17]: < 50%
- inhibition [18]: < 50%
- inhibition [19]: < 50%
- inhibition [20]: < 50%

Compound: C1CC2CCC1N2CC12C3C4C5C3C1C5C42 (centres undefined)
- Ki [21]: 7.96 µM
- inhibition [1]: < 50%
- inhibition [3]: < 50%
- inhibition [5]: < 50%
- inhibition [6]: < 50%
- inhibition [7]: < 50%
- inhibition [8]: < 50%
- inhibition [10]: < 50%
- inhibition [11]: < 50%
- inhibition [12]: < 50%
- inhibition [13]: < 50%
- inhibition [14]: < 50%
- inhibition [15]: < 50%
- inhibition [16]: < 50%
- inhibition [17]: < 50%
- inhibition [18]: < 50%
- inhibition [19]: < 50%
- inhibition [20]: < 50%

Compound: C1CCC(CN2C3CCC2CC3)CC1
- Ki [21]: 5.54 µM
- inhibition [1]: < 50%
- inhibition [2]: < 50%
- inhibition [3]: < 50%
- inhibition [4]: < 50%
- inhibition [5]: < 50%
- inhibition [6]: < 50%
- inhibition [7]: < 50%
- inhibition [8]: < 50%
- inhibition [9]: < 50%
- inhibition [10]: < 50%
- inhibition [11]: < 50%
- inhibition [12]: < 50%
- inhibition [13]: < 50%
- inhibition [14]: < 50%
- inhibition [15]: < 50%
- inhibition [16]: < 50%
- inhibition [17]: < 50%
- inhibition [18]: < 50%
- inhibition [19]: < 50%
- inhibition [20]: < 50%
